# Experimental data as given in patent publication US9267949B2, “Alkylamino BODIPY dyes as selective fluorescent probes for proteins and mouse embryonic stem cells” (National University of Singapore, priority 2011, dated 2016).
# How the values were obtained:
# [1] = Spectroscopic properties of the BDM library (absorbance and emission maxima); type: physicochemical
# [2] = Quantum yield measurements; type: physicochemical; settings: referred to Rhodamine B in EtOH, excitation 510 nm, emission integrated 540-800 nm
# Experimental: Quantum yields were calculated by measuring the integrated emission area of the fluorescent spectra, and referring them to the area measured for Rhodamine B in EtOH after excitation at 510 nm (ΦRho-B=0.70). Quantum yields for the BDM products were then calculated using equation below, where F represents the area of fluorescent emission, n is reflective index of the solvent, and Abs is absorbance at excitation wavelength selected for standards and samples. Emission was integrated from 540 nm to 800 nm.
Structure (SMILES),λmax (ABS) [1],λmax (EM) [1],φ (quantum yield) [2]
Cc1cc(/C=C/c2ccc(Cl)cc2)n2c1C(CCN)=C1C=CC=[N+]1[B-]2(F)F [BDM-12],556 nm,567 nm,0.32
CC1=CC(/C=C/c2ccc3c4c(cccc24)CC3)=[N+]2C1=C(CCN)c1cccn1[B-]2(F)F [BDM-89],576 nm,612 nm,0.30
COc1cc(OC)c(/C=C/C2=[N+]3C(=C(CCN)c4cccn4[B-]3(F)F)C(C)=C2)cc1Br [BDM-247],571 nm,599 nm,0.54
COc1ccc(/C=C/C2=[N+]3C(=C(CCN)c4cccn4[B-]3(F)F)C(C)=C2)cc1 [BDM-110],563 nm,583 nm,0.85
CCCCN(CCCC)c1ccc(/C=C/C2=[N+]3C(=C(CCN)c4cccn4[B-]3(F)F)C(C)=C2)cc1 [BDM-17],622 nm,695 nm,0.03
CC1=CC(/C=C/c2ccc(Oc3cc(Cl)cc(Cl)c3)cc2)=[N+]2C1=C(CCN)c1cccn1[B-]2(F)F [BDM-308],556 nm,567 nm,0.19
CCOc1ccc(/C=C/C2=[N+]3C(=C(CCN)c4cccn4[B-]3(F)F)C(C)=C2)cc1OC [BDM-63],568 nm,597 nm,0.54
COc1cc(/C=C/C2=[N+]3C(=C(CCN)c4cccn4[B-]3(F)F)C(C)=C2)cc(O)c1OC [BDM-307],564 nm,580 nm,0.07
COc1ccc(/C=C/C2=[N+]3C(=C(CCN)c4cccn4[B-]3(F)F)C(C)=C2)cc1O [BDM-132],568 nm,594 nm,0.05
CC1=CC(/C=C/c2ccc(Oc3ccc(F)cc3)cc2)=[N+]2C1=C(CCN)c1cccn1[B-]2(F)F [BDM-322],559 nm,577 nm,0.15
CC1=CC(/C=C/c2cccc(Oc3ccccc3)c2)=[N+]2C1=C(CCN)c1cccn1[B-]2(F)F [BDM-20],554 nm,564 nm,0.47
CCCOc1ccc(/C=C/C2=[N+]3C(=C(CCN)c4cccn4[B-]3(F)F)C(C)=C2)cc1 [BDM-140],564 nm,585 nm,0.57
CSc1ccccc1/C=C/C1=[N+]2C(=C(CCN)c3cccn3[B-]2(F)F)C(C)=C1 [BDM-333],557 nm,575 nm,0.30
COc1cc(OC)c(/C=C/C2=[N+]3C(=C(CCN)c4cccn4[B-]3(F)F)C(C)=C2)c(OC)c1 [BDM-82],579 nm,621 nm,0.40
CC1=CC(/C=C/c2c(C)cc(C)cc2C)=[N+]2C1=C(CCN)c1cccn1[B-]2(F)F [BDM-108],549 nm,573 nm,0.35
CC1=CC(/C=C/c2ccc(C(C)(C)C)cc2)=[N+]2C1=C(CCN)c1cccn1[B-]2(F)F [BDM-177],556 nm,567 nm,0.78
COc1ccc(/C=C/C2=[N+]3C(=C(CCN)c4cccn4[B-]3(F)F)C(C)=C2)cc1Cl [BDM-274],562 nm,577 nm,0.46
Cc1cc(/C=C/c2cc(C)c3n2[B-](F)(F)[N+]2=CC=CC2=C3CCN)cc(C)c1OCc1ccccc1 [BDM-16],561 nm,574 nm,0.14

Structure (SMILES),λmax (ABS) [1],λmax (EM) [1],φ (quantum yield) [2]
CC1=CC(/C=C/c2ccc(C)cc2Br)=[N+]2C1=C(CCN)c1cccn1[B-]2(F)F [BDM-267],558 nm,573 nm,0.21
CC1=CC(/C=C/c2ccccc2OC(F)F)=[N+]2C1=C(CCN)c1cccn1[B-]2(F)F [BDM-240],552 nm,565 nm,0.23
CCOc1ccc(/C=C/c2cc(C)c3n2[B-](F)(F)[N+]2=CC=CC2=C3CCN)cc1OCC [BDM-53],568 nm,600 nm,0.46
CC1=CC(/C=C/c2ccsc2)=[N+]2C1=C(CCN)c1cccn1[B-]2(F)F [BDM-369],554 nm,570 nm,0.30
CC1=CC(/C=C/c2cc(C)c(C)cc2C)=[N+]2C1=C(CCN)c1cccn1[B-]2(F)F [BDM-343],559 nm,577 nm,0.28
Cc1cc(/C=C/c2ccc(N(C)CCC#N)cc2)n2c1C(CCN)=C1C=CC=[N+]1[B-]2(F)F [BDM-3],600 nm,683 nm,0.05
CC1=CC(/C=C/c2ccc(Oc3ccc(Cl)c(Cl)c3)cc2)=[N+]2C1=C(CCN)c1cccn1[B-]2(F)F [BDM-299],555 nm,563 nm,0.27
CC1=CC(/C=C/c2ccccc2OC(F)(F)F)=[N+]2C1=C(CCN)c1cccn1[B-]2(F)F [BDM-365],549 nm,563 nm,0.24
COC(=O)c1ccc(-c2ccc(/C=C/C3=[N+]4C(=C(CCN)c5cccn5[B-]4(F)F)C(C)=C3)cc2)cc1 [BDM-179],566 nm,581 nm,0.26
Cc1cc(/C=C/c2ccc(C(C)C)cc2)n2c1C(CCN)=C1C=CC=[N+]1[B-]2(F)F [BDM-19],555 nm,569 nm,0.71
Cc1cc(/C=C/c2ccc(OCc3ccccc3)c(OCc3ccccc3)c2)n2c1C(CCN)=C1C=CC=[N+]1[B-]2(F)F [BDM-4],566 nm,590 nm,0.42
CC1=CC(/C=C/c2c(Cl)ccc(C)c2F)=[N+]2C1=C(CCN)c1cccn1[B-]2(F)F [BDM-246],554 nm,566 nm,0.17
COc1ccc(/C=C/C2=[N+]3C(=C(CCN)c4cccn4[B-]3(F)F)C(C)=C2)cc1[N+](=O)[O-] [BDM-350],556 nm,571 nm,0.14
CC1=CC(/C=C/c2cc(Br)ccc2O)=[N+]2C1=C(CCN)c1cccn1[B-]2(F)F [BDM-73],561 nm,575 nm,0.28
CC1=CC(/C=C/c2ccc3ccccc3c2)=[N+]2C1=C(CCN)c1cccn1[B-]2(F)F [BDM-137],563 nm,575 nm,0.28
CC1=CC(/C=C/c2ccc(-c3cncnc3)cc2)=[N+]2C1=C(CCN)c1cccn1[B-]2(F)F [BDM-199],562 nm,574 nm,0.18
CCOc1c(/C=C/C2=[N+]3C(=C(CCN)c4cccn4[B-]3(F)F)C(C)=C2)cccc1OC [BDM-320],558 nm,569 nm,0.21
COC(=O)c1cc(OC)cc(OC)c1/C=C/C1=[N+]2C(=C(CCN)c3cccn3[B-]2(F)F)C(C)=C1 [BDM-401],565 nm,590 nm,0.85
